Experimental data reported in patent US7122673B2, “Preparation of fused polycyclic alkaloids by ring closure of azomethine ylides, novel compounds thereof and their use as chemotherapeutic agents” (The Australian National University, priority 1997, dated 2006).

How the values were obtained:
[1] = system: fertilised sea urchin; conditions: fertilised sea urchin assay; background statement; cited from earlier work
[2] = system: P388 cell lines; conditions: cell line in culture; background statement; cited from earlier work
[3] = system: A549 cell lines; conditions: cell line in culture; background statement; cited from earlier work
[4] = system: lung cancer cell lines; conditions: acting as a Type IV microtubule poison; background statement; cited from earlier work

Compound: COc1cc(-c2c3n(c4c(=O)oc5cc(O)c(OC)cc5c24)CCc2cc(OC)c(OC)cc2-3)ccc1O [Compound 35, 10-Deoxylamellarin K]
- melting point: 292 to 294 °C

Compound: COc1cc(-c2c3n(c4c(=O)oc5cc(O)c(OC)cc5c24)CCc2c-3cc(OC)c(OC)c2OC)ccc1O [Lamellarin C]
- inhibition of cell division [1]: inhibition of cell division

Compound: COc1cc(-c2c3c4cc(OC)c(O)cc4oc(=O)c3n3ccc4cc(O)c(OC)cc4c23)ccc1O [Lamellarin D]
- inhibition of cell division [1]: inhibition of cell division

Compound: COc1ccc(-c2c3n(c4c(=O)oc5cc(O)c(OC)cc5c24)CCc2cc(O)c(OC)cc2-3)cc1O [Lamellarin L]
- cytotoxicity against P388 [2]: comparable and significant cytotoxicity
- cytotoxicity against A549 [3]: comparable and significant cytotoxicity

Compound: COc1ccc(-c2c3c4cc(OC)c(O)cc4oc(=O)c3n3ccc4cc(O)c(OC)cc4c23)cc1O [Lamellarin N]
- activity in lung cancer cell lines [4]: exhibit activity

Compound: Lamellarin I
- cytotoxicity against P388 [2]: comparable and significant cytotoxicity
- cytotoxicity against A549 [3]: comparable and significant cytotoxicity

Compound: Lamellarin K
- cytotoxicity against P388 [2]: comparable and significant cytotoxicity
- cytotoxicity against A549 [3]: comparable and significant cytotoxicity
